From ChEMBL document CHEMBL1909046, “DrugMatrix in vitro pharmacology data”
*1 amine or outer side, *2 acyl side, *3 side chain or, on linkers, in order; H or OH if unused. Where a SMILES comes first, the peptide text is derived from it. Bridges are numbered along the chain shown (N, C = ends). Roman numbers before positions name the chains, in order. [ ]: non-standard residue; d: D form. Actinocin(1to9) = Cc1c2oc3c(C)ccc(C(=O)[*:2])c3nc-2c(C(=O)[*:1])c(N)c1=O; NMeV = CN[C@H](C(=O)O)C(C)C; Sar = CNCC(=O)O

Columns and labels:
[1] = biological target: Beta-1 adrenergic receptor (Homo sapiens, UniProt P08588); experiment: DRUGMATRIX: Adrenergic beta1 radioligand binding (ligand: [125I] Cyanopindolol); type: cell membranes, CHO-K1, Membrane; conditions: cho-k1; Not Active = under 50% inhibition at 10 µM
Beta-1 adrenergic receptor, sequence (P08588 whole entry): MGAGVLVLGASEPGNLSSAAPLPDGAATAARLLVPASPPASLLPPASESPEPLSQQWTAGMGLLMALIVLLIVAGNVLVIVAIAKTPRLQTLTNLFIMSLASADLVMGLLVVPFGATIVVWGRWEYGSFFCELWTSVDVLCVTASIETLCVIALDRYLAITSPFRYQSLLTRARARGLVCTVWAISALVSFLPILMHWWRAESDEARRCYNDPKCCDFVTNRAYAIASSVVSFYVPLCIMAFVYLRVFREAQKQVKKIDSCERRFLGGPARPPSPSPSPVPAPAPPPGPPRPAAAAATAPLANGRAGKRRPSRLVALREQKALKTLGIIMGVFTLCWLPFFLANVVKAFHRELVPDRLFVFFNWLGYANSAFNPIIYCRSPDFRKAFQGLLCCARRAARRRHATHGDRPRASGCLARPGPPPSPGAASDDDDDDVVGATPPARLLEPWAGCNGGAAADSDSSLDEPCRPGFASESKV

[2] = DRUGMATRIX: beta-Lactamase enzyme inhibition (substrate: Nitrocefin); parameters: species or system Bacillus cereus; conditions: Not Active = under 50% inhibition at 10 µM
Cannabinoid receptor 1 = Cannabinoid receptor 1 (Homo sapiens, UniProt P21554); type: cell membranes, Membrane; conditions: chem-1; note: in other assays of this panel Not Active means under 50% inhibition at 10 µM
Cannabinoid receptor 1, sequence (P21554 whole entry): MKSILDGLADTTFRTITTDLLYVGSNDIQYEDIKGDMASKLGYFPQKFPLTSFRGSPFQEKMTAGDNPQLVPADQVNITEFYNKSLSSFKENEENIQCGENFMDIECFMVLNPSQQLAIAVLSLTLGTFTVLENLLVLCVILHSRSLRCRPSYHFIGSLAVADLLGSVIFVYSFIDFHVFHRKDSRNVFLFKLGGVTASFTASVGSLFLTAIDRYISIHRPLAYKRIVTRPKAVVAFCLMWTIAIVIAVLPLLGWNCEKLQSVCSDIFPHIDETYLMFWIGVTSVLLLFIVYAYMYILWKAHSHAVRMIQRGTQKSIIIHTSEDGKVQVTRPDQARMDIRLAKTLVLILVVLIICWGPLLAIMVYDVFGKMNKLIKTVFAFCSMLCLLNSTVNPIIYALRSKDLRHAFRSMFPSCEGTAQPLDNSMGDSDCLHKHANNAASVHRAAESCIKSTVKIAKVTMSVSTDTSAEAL

[3] = biological target: T1, C-X-C chemokine receptor type 2 (Homo sapiens, UniProt P25025); type: cell membranes, Membrane; conditions: cho-k1; note: in other assays of this panel Not Active means under 50% inhibition at 10 µM
T1 sequence (P25025 whole entry): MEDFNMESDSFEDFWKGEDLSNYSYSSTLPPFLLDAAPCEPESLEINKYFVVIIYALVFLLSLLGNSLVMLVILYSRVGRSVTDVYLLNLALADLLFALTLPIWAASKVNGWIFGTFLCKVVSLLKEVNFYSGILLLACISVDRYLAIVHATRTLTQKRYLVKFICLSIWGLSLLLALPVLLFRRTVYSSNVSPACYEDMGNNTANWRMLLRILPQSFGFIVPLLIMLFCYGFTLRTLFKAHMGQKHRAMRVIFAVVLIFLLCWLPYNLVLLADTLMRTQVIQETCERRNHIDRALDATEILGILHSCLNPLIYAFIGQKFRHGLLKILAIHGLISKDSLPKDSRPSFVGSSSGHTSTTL

[4] = biological target: T2, Cholecystokinin receptor type A (Homo sapiens, UniProt P32238); type: cell membranes, Membrane; conditions: 1321-n1; note: in other assays of this panel Not Active means under 50% inhibition at 10 µM
T2 sequence (P32238 whole entry): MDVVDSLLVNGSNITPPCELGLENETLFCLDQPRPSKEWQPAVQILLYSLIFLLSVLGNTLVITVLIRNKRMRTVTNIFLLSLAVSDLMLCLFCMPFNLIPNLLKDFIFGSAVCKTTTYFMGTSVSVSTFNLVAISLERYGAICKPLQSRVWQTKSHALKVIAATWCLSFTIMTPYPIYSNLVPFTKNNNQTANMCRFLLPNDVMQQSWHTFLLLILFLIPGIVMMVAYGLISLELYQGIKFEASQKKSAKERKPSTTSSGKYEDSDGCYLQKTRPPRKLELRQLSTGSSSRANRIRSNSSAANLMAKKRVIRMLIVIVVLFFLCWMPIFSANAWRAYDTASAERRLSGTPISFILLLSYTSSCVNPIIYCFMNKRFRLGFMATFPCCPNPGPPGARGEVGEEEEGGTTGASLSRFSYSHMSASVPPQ

Insulin receptor = Insulin receptor (Rattus norvegicus, UniProt P15127); type: cell membranes, Wistar, Liver, Membrane; note: in other assays of this panel Not Active means under 50% inhibition at 10 µM
Insulin receptor, sequence (P15127 27-759 limits assumed): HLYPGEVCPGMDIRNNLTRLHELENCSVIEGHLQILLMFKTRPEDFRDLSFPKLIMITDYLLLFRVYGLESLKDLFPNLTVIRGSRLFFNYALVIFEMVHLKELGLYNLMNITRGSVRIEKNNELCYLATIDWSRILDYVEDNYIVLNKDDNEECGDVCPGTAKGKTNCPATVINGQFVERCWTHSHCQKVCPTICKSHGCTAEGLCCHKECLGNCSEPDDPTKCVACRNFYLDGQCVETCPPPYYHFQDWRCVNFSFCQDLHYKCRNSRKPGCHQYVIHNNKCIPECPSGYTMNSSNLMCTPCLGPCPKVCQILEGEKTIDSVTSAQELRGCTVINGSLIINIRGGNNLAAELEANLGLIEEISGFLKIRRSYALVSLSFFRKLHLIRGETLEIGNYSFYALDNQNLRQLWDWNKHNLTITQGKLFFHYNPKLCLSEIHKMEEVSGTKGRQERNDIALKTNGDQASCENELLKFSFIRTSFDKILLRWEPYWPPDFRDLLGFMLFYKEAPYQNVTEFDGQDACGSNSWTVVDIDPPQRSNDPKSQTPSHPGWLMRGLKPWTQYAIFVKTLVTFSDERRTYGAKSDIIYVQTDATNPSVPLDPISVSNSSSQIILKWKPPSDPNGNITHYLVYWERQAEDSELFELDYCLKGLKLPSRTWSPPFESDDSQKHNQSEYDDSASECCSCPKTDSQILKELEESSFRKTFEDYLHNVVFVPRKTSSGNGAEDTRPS
Insulin receptor, sequence (P15127 764-1383 limits assumed): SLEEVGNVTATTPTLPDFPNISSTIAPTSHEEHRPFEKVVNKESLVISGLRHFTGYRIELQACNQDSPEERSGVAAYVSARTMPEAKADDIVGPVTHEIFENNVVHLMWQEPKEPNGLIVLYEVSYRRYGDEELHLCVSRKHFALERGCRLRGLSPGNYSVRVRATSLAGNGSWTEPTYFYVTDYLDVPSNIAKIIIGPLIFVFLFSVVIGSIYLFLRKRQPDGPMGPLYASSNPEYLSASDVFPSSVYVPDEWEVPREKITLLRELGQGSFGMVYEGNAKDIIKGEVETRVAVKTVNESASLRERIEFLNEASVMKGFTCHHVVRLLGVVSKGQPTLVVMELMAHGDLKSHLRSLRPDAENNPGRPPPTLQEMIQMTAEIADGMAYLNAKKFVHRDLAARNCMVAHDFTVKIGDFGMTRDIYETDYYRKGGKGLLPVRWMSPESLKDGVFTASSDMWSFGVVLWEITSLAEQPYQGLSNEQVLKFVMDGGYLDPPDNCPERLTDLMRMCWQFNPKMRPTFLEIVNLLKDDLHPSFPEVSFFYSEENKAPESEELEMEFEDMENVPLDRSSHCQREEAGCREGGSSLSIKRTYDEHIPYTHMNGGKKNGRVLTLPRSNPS

[5] = biological target: T3, Cysteinyl leukotriene receptor 1 (Homo sapiens, UniProt Q9Y271); type: cell membranes, CHO-K1, Membrane; conditions: cho-k1; note: in other assays of this panel Not Active means under 50% inhibition at 10 µM
T3 sequence (Q9Y271 whole entry): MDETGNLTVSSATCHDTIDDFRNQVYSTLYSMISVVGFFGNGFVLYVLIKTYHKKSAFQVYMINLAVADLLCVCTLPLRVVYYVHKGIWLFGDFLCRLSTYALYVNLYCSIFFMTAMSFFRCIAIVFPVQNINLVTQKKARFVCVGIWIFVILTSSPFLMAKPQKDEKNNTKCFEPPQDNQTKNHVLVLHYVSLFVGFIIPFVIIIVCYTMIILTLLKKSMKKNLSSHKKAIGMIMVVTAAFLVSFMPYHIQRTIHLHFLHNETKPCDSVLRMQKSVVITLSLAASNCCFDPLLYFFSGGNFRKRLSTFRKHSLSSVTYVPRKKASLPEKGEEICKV

[6] = biological target: T4, Nitric oxide synthase, inducible (Mus musculus, UniProt P29477); parameters: species or system Escherichia coli
T4 sequence (P29477 whole entry): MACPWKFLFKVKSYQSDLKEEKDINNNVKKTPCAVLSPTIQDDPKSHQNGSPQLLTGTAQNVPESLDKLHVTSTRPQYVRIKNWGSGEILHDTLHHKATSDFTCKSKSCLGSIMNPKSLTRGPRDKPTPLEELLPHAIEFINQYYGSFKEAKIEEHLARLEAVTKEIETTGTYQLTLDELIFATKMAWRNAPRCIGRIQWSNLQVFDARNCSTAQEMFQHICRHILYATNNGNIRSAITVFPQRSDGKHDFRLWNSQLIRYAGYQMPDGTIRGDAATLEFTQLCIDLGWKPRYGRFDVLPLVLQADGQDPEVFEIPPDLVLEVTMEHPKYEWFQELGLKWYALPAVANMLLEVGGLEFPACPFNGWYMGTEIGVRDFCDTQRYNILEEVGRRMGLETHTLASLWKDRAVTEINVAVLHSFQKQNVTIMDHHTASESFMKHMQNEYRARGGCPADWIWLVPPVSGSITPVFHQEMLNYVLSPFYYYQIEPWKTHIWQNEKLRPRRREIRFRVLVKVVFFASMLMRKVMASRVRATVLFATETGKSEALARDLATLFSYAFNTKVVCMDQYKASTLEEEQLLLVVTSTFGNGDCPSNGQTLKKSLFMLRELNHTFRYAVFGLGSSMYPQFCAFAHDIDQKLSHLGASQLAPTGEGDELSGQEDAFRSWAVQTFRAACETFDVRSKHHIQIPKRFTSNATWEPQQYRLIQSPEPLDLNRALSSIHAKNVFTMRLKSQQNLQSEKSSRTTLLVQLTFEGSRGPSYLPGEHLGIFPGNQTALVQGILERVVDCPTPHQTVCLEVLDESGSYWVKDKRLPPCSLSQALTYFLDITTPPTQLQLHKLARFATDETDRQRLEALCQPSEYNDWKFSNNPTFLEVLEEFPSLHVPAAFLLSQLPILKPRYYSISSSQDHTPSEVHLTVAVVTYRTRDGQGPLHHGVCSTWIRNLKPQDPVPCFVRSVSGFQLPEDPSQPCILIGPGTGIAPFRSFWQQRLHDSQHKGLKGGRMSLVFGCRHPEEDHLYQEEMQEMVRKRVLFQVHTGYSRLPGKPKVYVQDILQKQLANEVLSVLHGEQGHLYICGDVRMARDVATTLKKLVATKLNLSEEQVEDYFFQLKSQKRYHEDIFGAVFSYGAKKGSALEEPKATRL

Cc1cc(C(C#N)c2ccc(Cl)cc2)c(Cl)cc1NC(=O)c1cc(I)cc(I)c1O (centres undefined) [CLOSANTEL]
Not Active: IC50 [1] | IC50 [2] | Ki [2] | IC50 (Cannabinoid receptor 1) | IC50 [3] | IC50 [4] | IC50 (Insulin receptor) | IC50 [5] | IC50 [6]

Cc1onc(-c2ccccc2Cl)c1C(=O)N[C@@H]1C(=O)N2[C@@H]1SC(C)(C)[C@@H]2C(=O)O [CLOXACILLIN]
Not Active: IC50 [1] | IC50 [2] | Ki [2] | IC50 (Cannabinoid receptor 1) | IC50 [3] | IC50 [4] | IC50 (Insulin receptor) | IC50 [5] | IC50 [6]

CC1CC(OC(=O)C(O)c2ccccc2)CC(C)(C)C1 (centres undefined) [CYCLANDELATE]
Not Active: IC50 [1] | IC50 [2] | Ki [2] | IC50 (Cannabinoid receptor 1) | IC50 [3] | IC50 [4] | IC50 (Insulin receptor) | IC50 [5] | IC50 [6]

Cc1c2oc3c(C)ccc(C(=O)N[C@@H]4C(=O)N[C@H](C(C)C)C(=O)N5CCC[C@H]5C(=O)N(C)CC(=O)N(C)[C@@H](C(C)C)C(=O)O[C@@H]4C)c3nc-2c(C(=O)N[C@@H]2C(=O)N[C@H](C(C)C)C(=O)N3CCC[C@H]3C(=O)N(C)CC(=O)N(C)[C@@H](C(C)C)C(=O)O[C@@H]2C)c(N)c1=O [DACTINOMYCIN] (I: T[dV]P[Sar][NMeV] / II: T[dV]P[Sar][NMeV]; ester I:1-I:C, II:1-II:C; linker I:N-II:N via Actinocin(1to9))
Not Active: IC50 [1] | IC50 [2] | Ki [2] | IC50 (Cannabinoid receptor 1) | IC50 [3] | IC50 [4] | IC50 (Insulin receptor) | IC50 [5] | IC50 [6]

Cc1c(O)c(=O)ccn1C [DEFERIPRONE]
Not Active: IC50 [1] | IC50 [2] | Ki [2] | IC50 (Cannabinoid receptor 1) | IC50 [3] | IC50 [4] | IC50 (Insulin receptor) | IC50 [5] | IC50 [6]

O=c1oc2ccccc2c(O)c1Cc1c(O)c2ccccc2oc1=O [DICUMAROL]
Not Active: IC50 [1] | IC50 [2] | Ki [2] | IC50 (Cannabinoid receptor 1) | IC50 [3] | IC50 [4] | IC50 (Insulin receptor) | IC50 [5] | IC50 [6]

C[C@H]1O[C@@H](O[C@H]2[C@@H](O)C[C@H](O[C@H]3[C@@H](O)C[C@H](O[C@H]4CC[C@@]5(C)[C@H](CC[C@@H]6[C@@H]5C[C@@H](O)[C@]5(C)[C@@H](C7=CC(=O)OC7)CC[C@]65O)C4)O[C@@H]3C)O[C@@H]2C)C[C@H](O)[C@@H]1O [DIGOXIN]
Not Active: IC50 [1] | IC50 [2] | Ki [2] | IC50 (Cannabinoid receptor 1) | IC50 [3] | IC50 [4] | IC50 (Insulin receptor) | IC50 [5] | IC50 [6]

CC(C)[C@@]1(NC(=O)[C@@H]2C[C@@H]3c4cccc5[nH]cc(c45)C[C@H]3N(C)C2)O[C@@]2(O)[C@@H]3CCCN3C(=O)[C@H](Cc3ccccc3)N2C1=O.CS(=O)(=O)O [DIHYDROERGOCRISTINE MESYLATE]
Not Active: IC50 [1] | IC50 [2] | Ki [2] | IC50 (Cannabinoid receptor 1) | IC50 [3] | IC50 [4] | IC50 (Insulin receptor) | IC50 [5] | IC50 [6]

CC(=O)O[C@@]12CO[C@@H]1C[C@H](O)[C@@]1(C)C(=O)[C@H](O)C3=C(C)[C@@H](OC(=O)[C@H](O)[C@@H](NC(=O)OC(C)(C)C)c4ccccc4)C[C@@](O)([C@@H](OC(=O)c4ccccc4)[C@H]21)C3(C)C.O.O.O [DOCETAXEL]
Not Active: IC50 [1] | IC50 [2] | Ki [2] | IC50 (Cannabinoid receptor 1) | IC50 [3] | IC50 [4] | IC50 (Insulin receptor) | IC50 [5] | IC50 [6]

C[C@H]1c2cccc(O)c2C(=O)C2=C(O)[C@]3(O)C(=O)C(C(N)=O)=C(O)[C@@H](N(C)C)[C@@H]3[C@@H](O)[C@@H]21.O [DOXYCYCLINE]
Not Active: IC50 [1] | IC50 [2] | Ki [2] | IC50 (Cannabinoid receptor 1) | IC50 [3] | IC50 [4] | IC50 (Insulin receptor) | IC50 [5] | IC50 [6]

O=C(CCCN1CC=C(n2c(=O)[nH]c3ccccc32)CC1)c1ccc(F)cc1 [DROPERIDOL]
Not Active: IC50 [1] | IC50 [2] | Ki [2] | IC50 (Cannabinoid receptor 1) | IC50 [3] | IC50 [4] | IC50 (Insulin receptor) | IC50 [5] | IC50 [6]

CC(C)[C@H]1C(=O)N2CCC[C@H]2[C@]2(O)O[C@](NC(=O)[C@@H]3C=C4c5cccc6[nH]cc(c56)C[C@H]4N(C)C3)(C(C)C)C(=O)N12 [ERGOCORNINE]
Not Active: IC50 [1] | IC50 [2] | Ki [2] | IC50 (Cannabinoid receptor 1) | IC50 [3] | IC50 [4] | IC50 (Insulin receptor) | IC50 [5] | IC50 [6]

C[C@]12CC[C@@H]3c4ccc(O)cc4CC[C@H]3[C@@H]1CCC2=O [ESTRONE]
Not Active: IC50 [1] | IC50 [2] | Ki [2] | IC50 (Cannabinoid receptor 1) | IC50 [3] | IC50 [4] | IC50 (Insulin receptor) | IC50 [5] | IC50 [6]

OC(Cn1cncn1)(Cn1cncn1)c1ccc(F)cc1F [FLUCONAZOLE]
Not Active: IC50 [1] | IC50 [2] | Ki [2] | IC50 (Cannabinoid receptor 1) | IC50 [3] | IC50 [4] | IC50 (Insulin receptor) | IC50 [5] | IC50 [6]

CC(C)C(=O)Nc1ccc([N+](=O)[O-])c(C(F)(F)F)c1 [FLUTAMIDE]
Not Active: IC50 [1] | IC50 [2] | Ki [2] | IC50 (Cannabinoid receptor 1) | IC50 [3] | IC50 [4] | IC50 (Insulin receptor) | IC50 [5] | IC50 [6]

N=C(N)NCCN1CCCCCCC1 [GUANETHIDINE]
Not Active: IC50 [1] | IC50 [2] | Ki [2] | IC50 (Cannabinoid receptor 1) | IC50 [3] | IC50 [4] | IC50 (Insulin receptor) | IC50 [5] | IC50 [6]
